Measured values published in ChEMBL document CHEMBL1156950, “Synthesis and biological evaluation of 4-anilinoquinolines as potent inhibitors of epidermal growth factor receptor” (J Med Chem, 2010).
Activity calls are given as the source filed them. The rule behind the calls is not given here.

What was measured:
PC-9 = experiment: Cytotoxicity against human PC9 cells expressing 746-750 sequence deleted EGFR assessed as cell viability at 0.001 to 10 uM after 96 hrs by cell titer-glo assay; format: functional, cell-based
[1] = target: Epidermal growth factor receptor (Homo sapiens, UniProt P00533); experiment: Inhibition of 746-750 sequence deleted EGFR autophosphorylation in human PC9 cells after 24 hrs by immunoblotting; format: cell-based; conditions: PC-9
[2] = target: Serine/threonine-protein kinase 26 (Homo sapiens) (UniProt Q9P289); experiment: Inhibition of MST4 at 10 uM assessed as residual activity by [33P]ATP radioactive filter binding assay relative to control
[3] = target: Ribosomal protein S6 kinase beta-1 (Homo sapiens) (UniProt P23443); experiment: Inhibition of S6K1 at 10 uM assessed as residual activity by [33P]ATP radioactive filter binding assay relative to control
[4] = target: Serine/threonine-protein kinase PAK 2 (Homo sapiens) (UniProt Q13177); experiment: Inhibition of PAK2 at 10 uM assessed as residual activity by [33P]ATP radioactive filter binding assay relative to control
[5] = target: Epidermal growth factor receptor (Homo sapiens, UniProt P00533, L858R); experiment: Inhibition of EGFR Leu858Arg mutant by HTRF assay; format: protein assay
[6] = test system: 3-phosphoinositide-dependent protein kinase 1; experiment: Inhibition of PDK1 at 10 uM assessed as residual activity by [33P]ATP radioactive filter binding assay relative to control
[7] = target: Epidermal growth factor receptor (Homo sapiens, UniProt P00533, L858R/T790M); experiment: Inhibition of EGFR Leu858Arg and Thr790Met mutant by HTRF assay; format: protein assay
Epidermal growth factor receptor (Homo sapiens, UniProt P00533, L858R/T790M), sequence (P00533 25-1210 T790M/L858R limits assumed): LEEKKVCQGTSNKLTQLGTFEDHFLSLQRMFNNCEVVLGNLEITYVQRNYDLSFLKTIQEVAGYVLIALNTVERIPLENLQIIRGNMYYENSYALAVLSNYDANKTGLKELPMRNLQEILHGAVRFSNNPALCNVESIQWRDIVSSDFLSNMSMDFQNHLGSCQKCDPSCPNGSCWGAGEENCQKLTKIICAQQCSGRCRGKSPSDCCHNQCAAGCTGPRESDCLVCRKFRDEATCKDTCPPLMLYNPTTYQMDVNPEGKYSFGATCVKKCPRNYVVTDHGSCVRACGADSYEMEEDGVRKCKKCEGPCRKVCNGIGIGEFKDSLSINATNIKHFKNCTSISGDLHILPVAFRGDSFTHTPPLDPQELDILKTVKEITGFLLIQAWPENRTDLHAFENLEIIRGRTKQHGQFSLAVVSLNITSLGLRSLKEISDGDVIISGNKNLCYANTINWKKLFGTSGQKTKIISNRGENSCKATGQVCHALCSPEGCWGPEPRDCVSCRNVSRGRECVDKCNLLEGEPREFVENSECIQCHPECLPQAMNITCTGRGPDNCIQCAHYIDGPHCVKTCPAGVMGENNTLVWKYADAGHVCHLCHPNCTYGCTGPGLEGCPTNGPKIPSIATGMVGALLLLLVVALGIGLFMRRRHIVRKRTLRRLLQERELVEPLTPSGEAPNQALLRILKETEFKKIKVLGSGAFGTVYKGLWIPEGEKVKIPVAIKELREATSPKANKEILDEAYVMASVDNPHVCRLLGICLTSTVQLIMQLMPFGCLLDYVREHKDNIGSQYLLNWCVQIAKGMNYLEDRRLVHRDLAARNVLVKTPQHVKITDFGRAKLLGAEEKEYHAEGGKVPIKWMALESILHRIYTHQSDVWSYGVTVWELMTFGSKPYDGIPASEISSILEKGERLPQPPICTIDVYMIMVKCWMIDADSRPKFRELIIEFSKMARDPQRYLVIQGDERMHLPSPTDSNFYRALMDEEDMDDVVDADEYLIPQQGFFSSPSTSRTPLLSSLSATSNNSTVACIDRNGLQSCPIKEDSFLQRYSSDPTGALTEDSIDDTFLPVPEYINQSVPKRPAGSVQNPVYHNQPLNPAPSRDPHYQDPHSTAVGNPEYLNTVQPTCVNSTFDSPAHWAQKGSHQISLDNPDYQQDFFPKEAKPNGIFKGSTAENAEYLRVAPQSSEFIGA

Epidermal growth factor receptor (Homo sapiens, UniProt P00533), sequence (P00533 whole entry): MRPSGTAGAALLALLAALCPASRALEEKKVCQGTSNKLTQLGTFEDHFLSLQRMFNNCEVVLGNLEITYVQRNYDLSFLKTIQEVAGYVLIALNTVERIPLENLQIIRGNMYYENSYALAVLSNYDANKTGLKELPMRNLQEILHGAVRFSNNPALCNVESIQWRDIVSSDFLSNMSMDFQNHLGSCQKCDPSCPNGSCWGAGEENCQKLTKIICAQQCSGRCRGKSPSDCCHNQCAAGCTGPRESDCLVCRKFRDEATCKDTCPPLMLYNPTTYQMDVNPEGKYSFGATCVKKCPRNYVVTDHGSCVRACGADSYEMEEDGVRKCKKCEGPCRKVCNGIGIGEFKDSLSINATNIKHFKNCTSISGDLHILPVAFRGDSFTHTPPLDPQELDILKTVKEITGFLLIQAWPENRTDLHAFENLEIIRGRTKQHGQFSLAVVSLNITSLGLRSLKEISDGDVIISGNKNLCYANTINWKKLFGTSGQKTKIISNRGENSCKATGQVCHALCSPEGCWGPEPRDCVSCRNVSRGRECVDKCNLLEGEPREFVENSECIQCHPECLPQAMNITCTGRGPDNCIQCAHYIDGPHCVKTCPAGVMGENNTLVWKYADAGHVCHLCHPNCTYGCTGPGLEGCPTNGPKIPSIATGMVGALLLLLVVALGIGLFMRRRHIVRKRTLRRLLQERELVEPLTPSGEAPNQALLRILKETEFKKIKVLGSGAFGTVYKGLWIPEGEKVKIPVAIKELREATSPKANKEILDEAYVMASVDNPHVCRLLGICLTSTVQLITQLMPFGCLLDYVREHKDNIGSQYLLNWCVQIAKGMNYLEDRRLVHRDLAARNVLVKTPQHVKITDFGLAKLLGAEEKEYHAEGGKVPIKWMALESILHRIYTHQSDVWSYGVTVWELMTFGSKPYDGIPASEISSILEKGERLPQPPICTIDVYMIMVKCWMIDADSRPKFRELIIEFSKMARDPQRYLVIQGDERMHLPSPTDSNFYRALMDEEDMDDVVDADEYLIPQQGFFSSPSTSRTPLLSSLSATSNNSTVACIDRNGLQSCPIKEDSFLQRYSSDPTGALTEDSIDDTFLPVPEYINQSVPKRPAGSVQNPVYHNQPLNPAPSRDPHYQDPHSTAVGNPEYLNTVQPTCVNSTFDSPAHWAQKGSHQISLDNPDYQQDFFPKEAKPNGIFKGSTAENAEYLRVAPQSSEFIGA
Serine/threonine-protein kinase 26 (Homo sapiens), sequence (Q9P289 2-416 limits assumed): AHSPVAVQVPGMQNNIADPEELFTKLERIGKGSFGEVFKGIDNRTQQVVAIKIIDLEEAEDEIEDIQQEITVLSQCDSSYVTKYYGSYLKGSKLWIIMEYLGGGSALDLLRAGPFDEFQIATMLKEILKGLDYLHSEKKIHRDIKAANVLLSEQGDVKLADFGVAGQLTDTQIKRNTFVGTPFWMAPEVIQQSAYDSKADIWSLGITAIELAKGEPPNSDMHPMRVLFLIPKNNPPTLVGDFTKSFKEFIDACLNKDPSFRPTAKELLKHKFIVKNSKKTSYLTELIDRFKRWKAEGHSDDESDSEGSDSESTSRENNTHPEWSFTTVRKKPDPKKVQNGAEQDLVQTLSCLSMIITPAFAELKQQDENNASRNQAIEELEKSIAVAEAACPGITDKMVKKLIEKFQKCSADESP
Serine/threonine-protein kinase PAK 2 (Homo sapiens), sequence (Q13177 whole entry): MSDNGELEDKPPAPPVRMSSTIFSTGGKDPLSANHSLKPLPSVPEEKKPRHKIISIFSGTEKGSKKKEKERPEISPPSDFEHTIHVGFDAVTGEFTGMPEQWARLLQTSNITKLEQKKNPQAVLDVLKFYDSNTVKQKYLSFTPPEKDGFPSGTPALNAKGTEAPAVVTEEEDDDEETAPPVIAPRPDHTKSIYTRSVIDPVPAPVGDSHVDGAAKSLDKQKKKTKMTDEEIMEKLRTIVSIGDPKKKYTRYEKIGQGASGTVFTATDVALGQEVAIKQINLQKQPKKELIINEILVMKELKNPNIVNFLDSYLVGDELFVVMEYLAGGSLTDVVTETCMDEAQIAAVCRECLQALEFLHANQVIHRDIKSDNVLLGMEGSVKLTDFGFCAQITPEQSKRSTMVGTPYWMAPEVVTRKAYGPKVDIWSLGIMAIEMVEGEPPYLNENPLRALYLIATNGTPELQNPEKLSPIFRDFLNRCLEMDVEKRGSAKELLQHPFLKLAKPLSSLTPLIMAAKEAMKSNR
Epidermal growth factor receptor (Homo sapiens, UniProt P00533, L858R), sequence (P00533 25-1210 L858R limits assumed): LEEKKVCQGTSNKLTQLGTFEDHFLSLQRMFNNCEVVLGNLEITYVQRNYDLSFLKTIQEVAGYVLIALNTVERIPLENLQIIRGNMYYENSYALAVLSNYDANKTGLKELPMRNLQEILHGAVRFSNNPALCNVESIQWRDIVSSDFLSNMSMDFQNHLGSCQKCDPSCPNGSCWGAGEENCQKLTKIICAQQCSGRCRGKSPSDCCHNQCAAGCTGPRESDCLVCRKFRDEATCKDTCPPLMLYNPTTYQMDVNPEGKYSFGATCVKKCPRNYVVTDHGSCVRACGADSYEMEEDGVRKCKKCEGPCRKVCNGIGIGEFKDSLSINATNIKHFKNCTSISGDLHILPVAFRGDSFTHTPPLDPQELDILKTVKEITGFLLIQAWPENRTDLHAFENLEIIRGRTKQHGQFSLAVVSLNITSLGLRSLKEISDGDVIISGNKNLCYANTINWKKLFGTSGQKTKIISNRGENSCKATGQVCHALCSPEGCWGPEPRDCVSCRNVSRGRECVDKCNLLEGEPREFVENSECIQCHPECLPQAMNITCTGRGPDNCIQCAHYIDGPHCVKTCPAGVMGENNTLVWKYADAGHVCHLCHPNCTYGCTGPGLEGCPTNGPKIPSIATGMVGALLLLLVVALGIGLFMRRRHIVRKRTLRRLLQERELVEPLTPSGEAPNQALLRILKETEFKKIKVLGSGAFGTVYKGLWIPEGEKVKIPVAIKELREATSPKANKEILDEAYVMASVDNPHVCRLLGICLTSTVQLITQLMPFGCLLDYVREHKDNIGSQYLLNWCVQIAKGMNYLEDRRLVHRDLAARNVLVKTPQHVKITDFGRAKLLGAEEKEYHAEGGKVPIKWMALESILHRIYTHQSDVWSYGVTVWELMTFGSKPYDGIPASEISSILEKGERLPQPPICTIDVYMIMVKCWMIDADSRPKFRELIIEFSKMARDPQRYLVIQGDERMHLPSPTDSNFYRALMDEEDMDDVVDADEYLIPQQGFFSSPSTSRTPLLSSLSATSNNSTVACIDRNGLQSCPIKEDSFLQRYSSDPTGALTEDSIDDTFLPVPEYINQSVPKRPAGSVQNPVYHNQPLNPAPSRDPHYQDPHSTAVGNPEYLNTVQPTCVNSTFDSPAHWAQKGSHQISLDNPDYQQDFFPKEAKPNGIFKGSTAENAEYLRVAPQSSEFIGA
Ribosomal protein S6 kinase beta-1 (Homo sapiens), sequence (P23443 whole entry, looked up): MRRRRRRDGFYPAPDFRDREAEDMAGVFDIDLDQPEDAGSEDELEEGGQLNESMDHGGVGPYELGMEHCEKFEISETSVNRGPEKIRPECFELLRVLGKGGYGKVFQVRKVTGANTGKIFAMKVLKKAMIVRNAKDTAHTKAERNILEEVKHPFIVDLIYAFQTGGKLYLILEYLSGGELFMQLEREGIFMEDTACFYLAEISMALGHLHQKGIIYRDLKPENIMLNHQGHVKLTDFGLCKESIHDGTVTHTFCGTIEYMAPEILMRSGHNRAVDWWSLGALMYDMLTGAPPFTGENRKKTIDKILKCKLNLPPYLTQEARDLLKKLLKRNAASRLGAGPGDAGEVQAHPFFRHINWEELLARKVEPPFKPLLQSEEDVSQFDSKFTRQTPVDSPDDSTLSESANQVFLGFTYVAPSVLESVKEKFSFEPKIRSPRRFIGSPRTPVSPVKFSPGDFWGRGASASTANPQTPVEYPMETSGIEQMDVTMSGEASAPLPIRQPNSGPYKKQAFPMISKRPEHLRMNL

Activity [1]: Dose-dependent effect
Activity [2]: 80%
Activity [3]: 87%
Activity [4]: 79%
IC50 [5]: 0.0005 µM
Activity [6]: 78%
IC50 [7]: 0.13 µM
Structure (SMILES): CN(C)CCCC(=O)Nc1ccc2nccc(Nc3cccc(Br)c3)c2c1
Activity (PC-9): Active
